Test results taken from publication PMC9692523, “Exposure to (Poly)phenol Metabolites after a Fruit and Vegetable Supplement Intake: A Double-Blind, Cross-Over, Randomized Trial” (Nutrients, 2022).

Experiments:
[1] = Plasma pharmacokinetics of phenolic metabolites after one 450 mg capsule of the supplement (UHPLC-ESI-MS/MS); assay type: in vivo, human; details: for Cmax / Tmax / Tpres (time of presence of metabolites in circulation): n = 10, mean ± SEM; for Tpres (time of presence of metabolites in circulation): interval between first and last appearance; for AUC0-24: supplemented volunteers (n = 10), 450 mg capsule, mean ± SEM
Description: (§1) This study was designed as a 3-week randomized, double-blind, cross-over clinical trial. Eligible participants were randomized using simple block randomization of 1:1. Once enrolled, subjects received either one 450 mg capsule of the test supplement or one 450 mg capsule of placebo on the first day of the study (Phase I: D1). After three days of sampling, volunteers started a wash-out period of 1 week and were then enrolled for the second test Phase with ingestion of the opposite supplement (Phase II: D1) (Figure 1). The placebo product was 100% maltodextrin, which was (poly)phenol-free.
On the day of the test (D1), volunteers visited the Research Center after an overnight fast. Blood was collected at T0 to determine baseline levels of plasma phenolic metabolites. Then, volunteers were invited to take the 450 mg capsule of the supplement or the placebo with 250 mL of still water (Figure 2). Additional blood samples were then collected at 1 h (D1, T1), 2 h (D1, T2), 3 h (D1, T3), 4 h (D1, T4), 5 h (D1, T5), 6 h (D1, T6), 8 h (D1, T8), 10 h (D1, T10) and 24 h (D2, T24) after capsule intake. Blood was taken from the basilica vein and centrifuged at 3000 rpm for 10 min at 4 °C. Plasma was immediately extracted and frozen at −80 °C for further analysis.
Plasma samples were then extracted using a solid phase extraction (SPE) method, as previously reported by Castello and colleagues. Briefly, 350 µL of plasma samples was diluted (1:1) with phosphoric acid 4% (v/v). After plate activation, 600 µL of the diluted plasma samples was loaded on a 96 well µ-SPE HLB (Oasis® HLB µElution Plate 30 µm, Waters, Milford, Massachusetts, MA, USA). Samples were washed with 200 µL of water and 200 µL of 0.2% (v/v) acetic acid. Finally, samples were eluted with 60 µL of methanol for UHPLC-ESI-MS/MS analysis.
(§2) Plasma and urine samples were analyzed by a UHPLC DIONEX Ultimate 3000 equipped with a triple quadrupole TSQ Vantage (Thermo Fisher Scientific Inc) fitted with a heated ESI (H-ESI) (Thermo Fisher Scientific Inc) probe, as previously reported. Separations were carried out by means of a Kinetex EVO C18 (100 × 2.1 mm) column, 2.6 µm particle size (Phenomenex, Torrance, CA, USA), installed with a pre-column (Phenomenex). Mobile phase A was 0.2% formic acid in water, and mobile phase B was acetonitrile containing 0.2% formic acid. The gradient started with 5% B, and isocratic conditions were maintained for 0.5 min, reaching 95% B after 6.5 min, followed by 1 min at 95%. The starting gradient was then immediately re-established and maintained for 5 min to re-equilibrate the column. The flow rate was 0.4 mL/min, the injection volume was 5 µL and the column temperature was set at 40 °C.
(§3) The applied MS method consisted of the selective determination of each target precursor ion by the acquisition of characteristic product ion in selective reaction monitoring (SRM) mode (Supplemental Table S2). For all the analyses, the spray voltage was set at 3 kV, the vaporizer temperature at 300 °C and the capillary temperature operated at 270 °C. The sheath gas flow was 50 units, and auxiliary gas pressure was set to 10 units. Ultra-high purity argon gas was used for collision-induced dissociation (CID). The S-lens values were defined for each compound based on infusion parameter optimization. Conversely, for those compounds not available for infusion, the S-lens values were set using the values obtained for the chemically closest available standards. Quantification was performed with calibration curves of standards when available or using the most structurally similar compound. Data processing was performed using Xcalibur software (Thermo Scientific Inc., San Jose, CA, USA).
All data were expressed as mean values ± standard deviation (SD) and mean values ± standard error to the mean (SEM) for metabolites in blood and urine samples. […]

[2] = Urinary excretion of phenolic metabolites over 48 h after one 450 mg capsule of the supplement (UHPLC-ESI-MS/MS); assay type: in vivo, human; details: for Urinary excretion 0 (h) / Urinary excretion 0–3 (h) / Urinary excretion 3–6 (h) / Urinary excretion 6–10 (h) / Urinary excretion 10–14 (h) / Urinary excretion 14–24 (h) / Urinary excretion 24–32 (h) / Urinary excretion 32–48 (h) / Urinary excretion Total (0–48 h): urine, n = 10, mean ± SEM; for Urinary excretion 0 (h): baseline (day before)
Description: as §1
Urine samples were collected the day before (baseline) and during the 48 h period following the supplementation (T0-T3, T3-T6, T6-T10, T10-T14, T14-T24, T24-T32 and T32-T48) (Figure 2). Urine volumes at each collection period were registered, and samples were aliquoted and stored at −80 °C until further processing.
Then, urine samples were prepared as previously reported by Brindani and colleagues. Briefly, urine samples were defrosted, vortexed, diluted in 0.1% formic acid in water (1:4, v/v) and centrifuged at 12,000 rpm for 5 min. Finally, urine samples were filtered (0.45 µm nylon filter) prior to UHPLC-ESI-MS/MS analysis.
as §2, §3
All data were expressed as mean values ± standard deviation (SD) and mean values ± standard error to the mean (SEM) for metabolites in blood and urine samples. PKSolver add-on program in Microsoft Excel was used to determine pharmacokinetic parameters of blood phenolic metabolites, including time to reach the maximum plasma concentration (Tmax, h), maximum plasma concentration (Cmax, nmol/L), area under the curve (AUC0-24, nmol/L·h), and time of presence of metabolites in circulation (Tpres, h). Tpres was calculated by taking the time interval between the first appearance and the last appearance of the considered metabolite. Coefficient of variation (CV) was evaluated for each metabolite and multivariate principal component analysis (PCA) was applied to explore the inter-individual variation in the urinary metabolites among the participants. […]

Compound	Cmax [1] [nM]	Tmax [1] [h]	Tpres (time of presence of metabolites in circulation) [1] [h]	AUC0-24 [1] [µM·h]	Urinary excretion 0 (h) [2] [µg]	Urinary excretion 0–3 (h) [2] [µg]	Urinary excretion 3–6 (h) [2] [µg]	Urinary excretion 6–10 (h) [2] [µg]	Urinary excretion 10–14 (h) [2] [µg]	Urinary excretion 14–24 (h) [2] [µg]	Urinary excretion 24–32 (h) [2] [µg]	Urinary excretion 32–48 (h) [2] [µg]	Urinary excretion Total (0–48 h) [2] [µg]	Time of maximum (peak) urinary excretion ([2]; collection interval post-consumption) [h]	Time of first plasma concentration (absorption) peak ([1]; after supplement intake) [h]
COc1ccc(C2CC(=O)c3c(O)cc(OC4OC(C(=O)O)C(O)C(O)C4O)cc3O2)cc1O (stereo not shown) [compound 28]	19.9 ± 2.31	7.11 ± 0.90	17.83 ± 1.54	0.15205 ± 0.02784	14.48 ± 5.94	4.02 ± 2.90	20.07 ± 4.27	28.56 ± 5.46	9.57 ± 2.19	30.72 ± 8.04	19.07 ± 5.57	22.33 ± 5.83	148.81 ± 14.88		
O=C1CCC(Cc2cc(O)cc(OC3OC(C(=O)O)C(O)C(O)C3O)c2)O1 (stereo not shown) [compound 10]	15 ± 5.61	12.78 ± 2.85	14.44 ± 2.42	0.12555 ± 0.04768	5.34 ± 5.34	0.00 ± 0.00	101.70 ± 51.36	316.86 ± 132.04	199.53 ± 88.98	624.93 ± 108.36	281.58 ± 60.75	65.29 ± 25.62	1595.23 ± 260.71		
O=C(O)c1ccc(O)c(OC2OC(C(=O)O)C(O)C(O)C2O)c1 (stereo not shown) [compound 35]					1.13 ± 1.13	14.20 ± 4.88	24.68 ± 5.82	12.53 ± 4.10	3.10 ± 1.12	4.51 ± 1.34			60.16 ± 9.86		
O=C(O)C1OC(Oc2cc(CCO)ccc2O)C(O)C(O)C1O (stereo not shown) [compound 33]	24.9 ± 5.63	1.45 ± 0.32	8.45 ± 2.19	0.05092 ± 0.00585		53.75 ± 15.51	69.04 ± 13.20	38.02 ± 8.17	10.90 ± 3.90	10.23 ± 3.71	0.75 ± 0.75		182.69 ± 19.99	3 to 6	
O=C1CCC(Cc2cccc(OS(=O)(=O)O)c2)O1 (stereo not shown) [compound 23]	2.15 ± 0.48	8.22 ± 2.13	9.33 ± 2.45	0.01011 ± 0.00389	41.07 ± 30.35	4.29 ± 2.19	52.98 ± 22.54	175.24 ± 98.80	76.01 ± 39.48	345.14 ± 198.47	100.92 ± 46.88	34.61 ± 16.03	830.26 ± 275.43		
O=C(O)c1ccc(O)c(OS(=O)(=O)O)c1 [compound 45]	43.6 ± 7.34	2.10 ± 0.46	13.45 ± 2.80	0.19606 ± 0.03272											1.38 ± 0.18
O=C(O)[C@H]1O[C@@H](Oc2ccc3c(c2)oc(=O)c2ccccc23)[C@H](O)[C@@H](O)[C@@H]1O [compound 44]								5.31 ± 5.04	39.56 ± 37.53	144.45 ± 90.90	74.85 ± 48.79	30.99 ± 29.40	295.17 ± 185.26		
COc1cc(C(=O)O)cc(OC)c1O.COc1cc(C(=O)O)cc(OC)c1O [compound 39]					0.71 ± 0.46	8.71 ± 8.71	3.89 ± 3.81	3.57 ± 2.82	1.42 ± 1.38	3.63 ± 2.95	3.33 ± 2.94	8.73 ± 8.35	33.92 ± 30.72		

Results, then the molecule that gave them:

Cmax [1] [nM]	Tmax [1] [h]	Tpres (time of presence of metabolites in circulation) [1] [h]	AUC0-24 [1] [µM·h]	Urinary excretion 0 (h) [2] [µg]	Urinary excretion 0–3 (h) [2] [µg]	Urinary excretion 3–6 (h) [2] [µg]	Urinary excretion 6–10 (h) [2] [µg]	Urinary excretion 10–14 (h) [2] [µg]	Urinary excretion 14–24 (h) [2] [µg]	Urinary excretion 24–32 (h) [2] [µg]	Urinary excretion 32–48 (h) [2] [µg]	Urinary excretion Total (0–48 h) [2] [µg]	Time of maximum (peak) urinary excretion ([2]; collection interval post-consumption) [h]	Time of first plasma concentration (absorption) peak ([1]; after supplement intake) [h]	Compound
816 ± 269	6.50 ± 1.28	21.55 ± 0.74	5.71944 ± 1.32787												O=C(O)CNC(=O)c1ccc(O)cc1 [compound 47]
18.2 ± 11.3	4.56 ± 1.13	9.06 ± 2.56	0.02741 ± 0.01121	27.49 ± 27.49	101.08 ± 52.47	103.59 ± 54.34	41.08 ± 16.51	56.67 ± 24.78	389.70 ± 95.00	208.69 ± 73.47	289.45 ± 118.16	1217.76 ± 256.95			O=C(O)CCc1ccc(O)c(OS(=O)(=O)O)c1 [compound 41]
443 ± 99.3	7.13 ± 0.77	7.50 ± 2.38	1.55429 ± 0.64433	96.20 ± 96.20	85.67 ± 85.67			287.94 ± 287.94	262.06 ± 138.26		676.70 ± 383.40	1408.57 ± 544.97			O=C(O)CCc1cccc(O)c1.O=C(O)CCc1cccc(O)c1 [compound 40]
							6.91 ± 6.55	5.49 ± 5.21	36.41 ± 34.54	14.38 ± 9.83	5.33 ± 5.05	68.53 ± 55.19			O=C(O)[C@H]1O[C@@H](Oc2ccc3c(c2)oc(=O)c2ccc(O)cc23)[C@H](O)[C@@H](O)[C@@H]1O [compound 43]
169 ± 156	6.43 ± 2.97	7.14 ± 3.61	0.55828 ± 0.53121												COc1cc(CCC(=O)O)ccc1OS(=O)(=O)O [compound 46]
